Among the data in ChEMBL document CHEMBL3228005, “Inhibition of rat passive cutaneous anaphylaxis by 3-(tetrazol-5-yl)quinolines” (1979) are minimal effective dose, ED50 and Ratio values, retold here.

A value given as a limit tells only on which side of the number the result lay.

Format in all cases: functional
The subject of assay [1] is Rattus norvegicus. Put plainly: Inhibition of passive cutaneous anaphylaxis in ip dosed Sprague-Dawley rat. The following applies: for minimal effective dose: read-out: MED.
Assay [2] deals with Rattus norvegicus. Kind of assay: Inhibition of passive cutaneous anaphylaxis in po dosed Sprague-Dawley rat. The following applies: read-out: MED.
The test system of assay [3] is Rattus norvegicus. Kind of assay: Inhibition of passive cutaneous anaphylaxis in po dosed Sprague-Dawley rat administered with ball-milled suspension. The note with it: read-out: MED.
Assay [4] relates to Rattus norvegicus. Kind of assay: Ratio of disodium cromoglycate MED to compound MED for inhibition of passive cutaneous anaphylaxis in ip dosed Sprague-Dawley rat.
Assay [5] concerns Rattus norvegicus. Kind of assay: Inhibition of passive cutaneous anaphylaxis in ip dosed Sprague-Dawley rat administered with ball-milled suspension. The note with it: read-out: MED.
Assay [6] deals with Rattus norvegicus. Kind of assay: Ratio of doxantrazole MED to compound MED for inhibition of passive cutaneous anaphylaxis in po dosed Sprague-Dawley rat.

The ED50 is the dose at which the effect has come halfway, by size or by number of responders.

Regarding `Fc1cccc2cc(-c3nn[nH]n3)cnc12`, the minimal effective dose in assay [1] is more than 10 mg/kg.
Consider `c1ccc2ncc(-c3nn[nH]n3)cc2c1`, for which the minimal effective dose in assay [1] was 10 mg/kg; in assay [2] it was 25 mg/kg.
For `Cl.c1nc2ccc(C3CCCCC3)cc2cc1-c1nn[nH]n1` the same measures were 5 mg/kg and more than 25 mg/kg.
In the same order, the values of `CC(C)c1cccc2c(=O)c(-c3nn[nH]n3)c[nH]c12` are 1.25 mg/kg and 10 mg/kg.
`CCc1cccc2c(=O)c(-c3nn[nH]n3)c[nH]c12`: the minimal effective dose in assay [1] is 0.312 mg/kg; in assay [2], more than 25 mg/kg.
With `O=c1c(-c2nn[nH]n2)c[nH]c2c(F)cccc12`, the minimal effective dose in assay [1] turned out to be 0.625 mg/kg; in assay [3], 2.5 mg/kg; in assay [2], 10 mg/kg.
With `COc1ccc2cc(C(=O)O)cnc2c1.Cl`, the minimal effective dose in assay [1] is more than 25 mg/kg.
Take `Cc1ccc2cc(C(=O)O)cnc2c1C`: the minimal effective dose in assay [1] was 25 mg/kg; in assay [2], 50 mg/kg.
In the same order, the values of `O.O=C(O)c1cnc2c(F)cccc2c1` are more than 25 mg/kg and 150 mg/kg.
Turning to `c1nc2c3c(ccc2cc1-c1nn[nH]n1)CCCC3`, the minimal effective dose in assay [1] and in assay [2] was 5 mg/kg in each case.
In the case of `COc1cccc2c(O)c(C(=O)O)cnc12`, the minimal effective dose is 10 mg/kg in assay [1] and more than 100 mg/kg in assay [2].
As to `Cl.c1cc2ncc(-c3nn[nH]n3)cc2cc1OC1CCCCC1`, the minimal effective dose in assay [1] is 5 mg/kg; in assay [2] it was 10 mg/kg.
For `O.O=c1c(-c2nn[nH]n2)c[nH]c2ccccc12` the same measures were 1.25 mg/kg and more than 20 mg/kg.
As for `COc1cccc2cc(C(=O)O)cnc12`, the figures for the minimal effective dose in assay [1] and in assay [2] were 25 mg/kg and 150 mg/kg, respectively.
As for `COc1ccc(OC)c2ncc(C(=O)O)cc12`, the minimal effective dose in assay [1] was more than 25 mg/kg; in assay [2], more than 50 mg/kg.
For `CSc1cccc2c(=O)c(-c3nn[nH]n3)c[nH]c12`, the minimal effective dose in assay [1] came out at 10 mg/kg; in assay [2] it was 25 mg/kg.
For `COc1ccc2cc(-c3nn[nH]n3)cnc2c1.Cl`, the minimal effective dose is 5 mg/kg in assay [1] and more than 25 mg/kg in assay [2].
Consider `FC(F)(F)c1ccc2cc(-c3nn[nH]n3)cnc2c1`, for which the minimal effective dose in assay [1] was less than 10 mg/kg; in assay [2] it was 25 mg/kg.
For `O=C(O)c1cnc2ccc(OC3CCCCC3)cc2c1`, the minimal effective dose in assay [1] was more than 25 mg/kg.
For the compound `Fc1ccc2ncc(-c3nn[nH]n3)cc2c1`, the minimal effective dose in assay [1] is less than 25 mg/kg; in assay [2], 50 mg/kg.
With `O=c1c(-c2nn[nH]n2)c[nH]c2c(Cl)c(Cl)ccc12`, the results for the minimal effective dose in assay [1] and in assay [2] were more than 0.156 mg/kg and more than 10 mg/kg, respectively.
In the same order, the values of `CCc1cccc2cc(C(=O)O)cnc12` are more than 50 mg/kg and 75 mg/kg.
In the same order, the values of `O=C(O)c1cnc2ccccc2c1` are 50 mg/kg and 150 mg/kg.
As to `O=C(O)c1cnc2c(F)cc(F)cc2c1`, the minimal effective dose in assay [1] came to 25 mg/kg.
Turning to `CCCCc1ccc2ncc(-c3nn[nH]n3)cc2c1`, the results for the minimal effective dose in assay [1] and in assay [2] were 5 mg/kg and more than 25 mg/kg, respectively.
Take `Cc1ccc2cc(-c3nn[nH]n3)cnc2c1C`: the minimal effective dose in assay [1] is 1 mg/kg; in assay [2], 25 mg/kg.
For `O=C(O)c1cnc2c(Cl)cccc2c1` the same measures were 25 mg/kg and 150 mg/kg.
In the same order, the values of `FC(F)(F)c1cccc2cc(-c3nn[nH]n3)cnc12` are less than 25 mg/kg and 25 mg/kg.
Turning to `O=C(O)c1cnc2c(ccc3ccccc32)c1`, the values for the minimal effective dose in assay [1] and in assay [2] were 25 mg/kg and 50 mg/kg, respectively.
For `Cc1cccc2cc(C(=O)O)cnc12` the same measures were more than 50 mg/kg and more than 25 mg/kg.
Regarding `O=C(O)c1cnc2c(Cl)cccc2c1O`, in assay [2], the minimal effective dose is more than 100 mg/kg.
Take `COc1ccc(OC)c2c(=O)c(-c3nn[nH]n3)c[nH]c12`: the minimal effective dose in assay [1] was 1.25 mg/kg; in assay [2] it was more than 10 mg/kg.
Take `O=C(O)c1cnc2c3c(ccc2c1)CCCC3`: the minimal effective dose in assay [1] is 25 mg/kg; in assay [2], 50 mg/kg.
In the same order, the values of `COc1ccc2ncc(-c3nn[nH]n3)cc2c1.O` are 10 mg/kg and more than 25 mg/kg.
In the case of `O=C(O)c1cnc2cc(C(F)(F)F)ccc2c1`, the minimal effective dose in assay [1] and in assay [2] was more than 25 mg/kg in each case.
Take `Cc1cccc2cc(-c3nn[nH]n3)cnc12`: the figures for the minimal effective dose in assay [1] and in assay [2] were less than 25 mg/kg and 25 mg/kg, respectively.
Turning to `O=C(O)c1cnc2c(F)cccc2c1O`, the minimal effective dose in assay [2] is more than 100 mg/kg.
In the case of `O=c1c(-c2nn[nH]n2)c[nH]c2c(C(F)(F)F)cccc12`, the minimal effective dose is 0.156 mg/kg in assay [1] and more than 25 mg/kg in assay [2].
For `O=c1c(-c2nn[nH]n2)c[nH]c2c(Br)cccc12` the same measures were more than 5 mg/kg and more than 10 mg/kg.
`O=C([O-])c1cc(=O)c2c(OCC(O)COc3cccc4oc(C(=O)[O-])cc(=O)c34)cccc2o1.[Na+].[Na+]` [CROMOLYN SODIUM] displayed an ED50 in assay [1] of 2.6 mg/kg.
Turning to `COc1cccc2c(=O)c(-c3nn[nH]n3)c[nH]c12.O`, the minimal effective dose in assay [1] is 0.15 mg/kg; in assay [2] it was 0.312 mg/kg.
In the same order, the values of `Fc1cc(F)c2ncc(-c3nn[nH]n3)cc2c1` are 10 mg/kg and more than 50 mg/kg.
Turning to `COc1ccc2c(=O)c(-c3nn[nH]n3)c[nH]c2c1`, the minimal effective dose in assay [1] was determined as 10 mg/kg.
Take `CCOc1cccc2cc(C(=O)O)cnc12`: the minimal effective dose in assay [1] is more than 25 mg/kg; in assay [2], more than 50 mg/kg.
In the same order, the values of `CC(C)Oc1cccc2c(=O)c(-c3nn[nH]n3)c[nH]c12` are 0.078 mg/kg and 1.25 mg/kg.
For `CCc1cccc2cc(-c3nn[nH]n3)cnc12` the same measures were 2.5 mg/kg and 5 mg/kg.
For `COc1cccc2cc(-c3nn[nH]n3)cnc12` the same measures were 2.5 mg/kg and more than 25 mg/kg.
Consider `O=C1c2ccccc2S(=O)(=O)c2cc(-c3nn[nH]n3)ccc21` [DOXANTRAZOLE], for which the minimal effective dose in assay [2] is 5 mg/kg.
For `COc1ccc2c(O)c(C(=O)O)cnc2c1`, the minimal effective dose was more than 50 mg/kg in assay [1] and more than 100 mg/kg in assay [2].
Regarding `COc1ccc(OC)c2ncc(-c3nn[nH]n3)cc12`, the minimal effective dose in assay [1] was 5 mg/kg; in assay [2], more than 50 mg/kg.
In the same order, the values of `CS(=O)(=O)c1cccc2c(=O)c(-c3nn[nH]n3)c[nH]c12` are 10 mg/kg and more than 25 mg/kg.
In the same order, the values of `O=c1c(-c2nn[nH]n2)c[nH]c2c(F)ccc(F)c12` are more than 0.156 mg/kg and 10 mg/kg.
For the compound `O=C(O)c1cnc2c(C(F)(F)F)cccc2c1`, the minimal effective dose in assay [1] came out at 50 mg/kg; in assay [2], 75 mg/kg.
In the same order, the values of `COc1ccc2ncc(C(=O)O)c(O)c2c1` are more than 50 mg/kg and more than 100 mg/kg.
Turning to `O.O=c1c(-c2nn[nH]n2)c[nH]c2ccc(F)cc12`, the minimal effective dose in assay [1] was 1.25 mg/kg; in assay [2] it was more than 20 mg/kg.
Turning to `O=C(O)c1cnc2ccc(C(F)(F)F)cc2c1`, the minimal effective dose is more than 25 mg/kg in assay [1] and more than 50 mg/kg in assay [2].
For the compound `O=c1c(-c2nn[nH]n2)c[nH]c2c(Cl)cccc12`, the results for the Ratio in assay [4] and in assay [6] were 33 and 32, respectively. In addition, the figures for the minimal effective dose in assay [5] and in assay [1] were 0.156 mg/kg and 0.078 mg/kg, respectively.
For the compound `O=c1c(-c2nn[nH]n2)c[nH]c2c(Cl)ccc(Cl)c12`, the minimal effective dose was more than 0.156 mg/kg in assay [1] and 0.312 mg/kg in assay [2].
Regarding `Cl.O=C(O)c1cnc2ccc(F)cc2c1`, in assay [2], the minimal effective dose is more than 50 mg/kg.
For the compound `CCc1ccc2c(=O)c(-c3nn[nH]n3)c[nH]c2c1.O`, the minimal effective dose in assay [1] was less than 5 mg/kg; in assay [2], more than 10 mg/kg.
In the same order, the values of `Cc1ccc2[nH]cc(-c3nn[nH]n3)c(=O)c2c1.O` are 1.25 mg/kg and more than 25 mg/kg.
With `O=C(O)c1cnc2ccc(C3CCCCC3)cc2c1`, in assay [1], the minimal effective dose is more than 25 mg/kg.
On to `O.O=c1c(-c2nn[nH]n2)c[nH]c2c(Cl)cc(Cl)cc12`, for which the minimal effective dose in assay [1] is more than 0.156 mg/kg; in assay [2], more than 10 mg/kg.
As to `Cc1cc(F)c2[nH]cc(-c3nn[nH]n3)c(=O)c2c1.O`, the minimal effective dose in assay [1] was 2.5 mg/kg; in assay [2] it was more than 10 mg/kg.
Turning to `O=c1c(-c2nn[nH]n2)c[nH]c2ccc(Cl)cc12`, the figures for the minimal effective dose in assay [1] and in assay [2] were more than 10 mg/kg and more than 25 mg/kg, respectively.
Consider `Cc1cccc2c(=O)c(-c3nn[nH]n3)c[nH]c12`, for which the minimal effective dose in assay [1] was more than 5 mg/kg; in assay [2] it was more than 10 mg/kg.
As to `c1ccc2c(c1)ccc1cc(-c3nn[nH]n3)cnc12`, the minimal effective dose in assay [1] came to 5 mg/kg; in assay [2] it was 10 mg/kg.
For `COc1ccc2ncc(C(=O)O)cc2c1`, in assay [1], the minimal effective dose was more than 5 mg/kg.
Regarding `CCc1ccc2[nH]cc(-c3nn[nH]n3)c(=O)c2c1.O`, the values for the minimal effective dose in assay [1], in assay [3] and in assay [2] were less than 5 mg/kg, 0.156 mg/kg and 0.625 mg/kg, respectively.
As for `O.O=c1c(-c2nn[nH]n2)c[nH]c2c3c(ccc12)CCCC3`, the minimal effective dose in assay [2] is more than 25 mg/kg.
For the compound `Cc1cc([N+](=O)[O-])c2cc(-c3nn[nH]n3)cnc2c1C`, the minimal effective dose in assay [1] came out at 2.5 mg/kg; in assay [2] it was 25 mg/kg.
